Consider seven compounds from patent US10829493B2, “Compositions and methods for treating KIT- and PDGFRA-mediated diseases” (Blueprint Medicines Corporation, priority 2019, dated 2020).

Read-outs that look alike come from different tables or passages of the source.

Broadly, the Kp is the ratio of the level in a tissue or fluid to that in plasma or blood. Usually Kd stands for the concentration at which binding is half-saturated.

In series [1] the target is KIT D816V (Homo sapiens (Human), UniProt P10721, D816V). Put plainly: KIT D816V biochemical enzymatic activity assay (EZReader 2 mobility shift). As to conditions: at APPKM for ATP, 20 μM ATP, 60 minutes. An excerpt:
(§1) PDGFRα and KIT enzymatic activity was monitored using the Perkin Elmer electrophoretic mobility shift technology platform, the EZReader 2.
(§2) Within the linear, steady-state phase of the kinase enzymatic reaction, the mixed pool of phosphorylated (product) and non-phosphorylated (substrate) peptides was passed through the microfluidic system of the PerkinElmer EZ Reader 2, under an applied electric potential difference. The presence of the phosphate group on the product peptide provided a difference in mass and charge between that of the substrate peptide, resulting in a separation of the substrate and product pools in the sample (Perrin et al., Expert Opin Drug Discovery 2010 Jan. 5(1):51-63).
(§3) As the product and substrate peptide mixture passes the lasers within the instrument, these pools are detected (λex=488 nm, λem=568 nm) and resolved as separate peaks. The ratio between these peaks reflects the activity of the compound at that concentration, in that well, under those conditions.
(§4) All test articles were dissolved in 100% DMSO at a stock concentration of 10 mM. A 100×, 10-point, 4-fold serial dilution of all test compounds was created in 100% DMSO, starting at a relevant concentration, usually 1 mM. A volume of 0.130 μL of each concentration was transferred to the relevant well of a 384-well assay plate (Greiner 781 201) using a TTPLabtech Mosquito nano-liter dispenser. Using the Multidrop, the remaining constituents of the reaction were then added to the 0.130 μL of compound as follows:
The plate was read on a Caliper EZReader 2.

The target of the next series is PDGFRα D842V (Homo sapiens (Human), UniProt P16234, D842V). Put plainly: PDGFRα D842V biochemical enzymatic activity assay (EZReader 2 mobility shift). As to conditions: at APPKM for ATP, 25 μM ATP, 90 minutes.
Description: as §1, §2, §3
Inhibition of KIT (D816V) PDGFRα (D842V) Mutant Biochemical Enzymatic Activity
as §4
The reaction was stopped by the addition of 70 μl of Stop buffer (100 mM HEPES pH 7.5, 0.015% Brij 35, 35 mM EDTA and 0.2% of Coating Reagent 3, Caliper Lifesciences). The plate was read on a Caliper EZReader 2.

The target of series [2] is KIT D816V (Homo sapiens (Human), UniProt P10721, D816V/V560G). Put plainly: HMC1.2 autophosphorylation assay (phospho-Y719 KIT AlphaLISA). It counts as cell-based. As to conditions: HMC1.2 cell line, KIT autophosphorylation at tyrosine 719, 90 minutes; read-out: KIT (P-KIT HMC1.2 (nM)). As for the experimental part:
10,000 HMC1.2 cells were incubated in 22 μL culture media (phenol-red free IMDM, no serum) in each well of a 384-well plate and serum starved overnight in a tissue culture incubator (5% CO2, 37° C.). […] 10 μL of 100 μg/mL streptavidin donor beads (Perkin Elmer) were added to each well, blocked from light with solid black adhesive and shaken at 300 rpm at room temperature for 2 hours. Fluorescence signal was obtained on Envision (Perkin Elmer) by AlphaScreen 384 well HTS protocol.
Background: In Alpha technology, singlet oxygen from a donor bead excites a nearby acceptor bead.

Series [3] in a line: Brain penetration in rats, brain to plasma ratios (Kp,brain, Kpuu,brain). It counts as in vivo, Sprague-Dawley rats. To be noted: for Kp uu at 24 h / Kp at 24 h: Sprague-Dawley, rat, brain, intravenous, 1 mg/kg/hr; for Kp at 24 h / Rat Kp: rat brain to plasma ratio; for Kp at 24 h: read-out: Rat Kp. The source says: To understand the brain penetration, brain to plasma ratios of the compounds were obtained in Sprague-Dawley (SD) rats. In vivo equilibrium distribution between blood and brain in preclinical species such as rats is a commonly used parameter to evaluate brain penetration. Kp,brain is the ratio of concentrations in brain and blood (Cbrain/Cplasma) The compound's passive diffusion characteristics, its affinity for membrane transporters at the blood-brain barrier (BBB), and the relative drug binding affinity differences between the plasma proteins and brain tissue influence the Kp,brain.
The animals received IV infusion of 1 mg/kg/hr of the compound over 24 hours via jugular vein cannulation. At 24 hours, blood was collected via tail vein bleeding or cardiac puncture (under anesthesia) and centrifuged to obtain plasma samples. Brain tissues were collected and homogenized with phosphate-buffered saline (PBS). The concentrations of the compounds were obtained in the plasma and brain homogenates by LC-MS/MS analysis.

For the next series, the target named is wt KIT kinase (Homo sapiens (Human), UniProt P10721). Put plainly: Wild-type KIT binding assay (Kd determination, phage-tagged kinase, qPCR). As for the experimental part: Kd Determinations. For most assays, including wt KIT kinase, kinase-tagged T7 phage strains were prepared in an E. coli host derived from the BL21 strain. E. coli were grown to log-phase and infected with T7 phage and incubated with shaking at 32° C. until lysis. […] The liganded beads were blocked with excess biotin and washed with blocking buffer (SeaBlock (Pierce), 1% BSA, 0.05% Tween 20, 1 mM DTT) to remove unbound ligand and to reduce non-specific binding. […] Test compounds were prepared as 111× stocks in 100% DMSO. Kds were determined using an 11-point 3-fold compound dilution series with three DMSO control points. […] The compounds were then diluted directly into the assays such that the final concentration of DMSO was 0.9%. All reactions were performed in polypropylene 384-well plate. Each was a final volume of 0.02 ml. […] The kinase concentration in the eluates was measured by qPCR.
Binding Constants (Kds). Binding constants (Kds) were calculated with a standard dose-response curve using the Hill equation: Response=Background+Signal−Background 1+(KdHill Slope/DoseHill Slope). The Hill Slope was set to −1. Curves were fitted using a non-linear least square fit with the Levenberg-Marquardt algorithm.
For orientation: Quantitative PCR measures a nucleic acid by following its amplification.

The subject of the next series is UT-7 cells. In words: UT-7 cell proliferation with SCF stimulation as a measure of wild-type KIT activity (CellTiter-Glo). Type of series: cell-based, human. To be noted: Homo sapiens, UT7, 72 h, SCF-stimulated UT-7 cell proliferation. An excerpt:
UT-7 Cell Proliferation with SCF Stimulation Assay as a Measure of Wild-Type KIT Activity
UT-7 cells are human megakaryoblastic leukemia cell lines that can be grown in culture with dependence on granulocyte macrophage colony stimulating factor (GM-CSF) or stem cell factor (SCF). UT-7 cells respond to SCF stimulation by activation of the KIT receptor tyrosine kinase and subsequent downstream signaling that can support cell growth and proliferation (Kuriu et al, 1999; Komatsu et al, 1991; Sasaki et al, 1995). Test compounds were assayed for their ability to inhibit SCF-stimulated proliferation of UT-7 cells.
Inhibition of SCF-stimulated UT-7 cell proliferation was assessed using the CellTiter-Glo assay that quantifies the amount of adenosine triphosphate (ATP) present, which is a readout of metabolically active cells and is directly proportional to the number of viable cells in culture. The ability of test compounds to inhibit SCF-stimulated UT-7 cell proliferation was determined using a 10-point dose curve ranging from 25 μM to 95.4 pM of test compound.
UT-7 cells were maintained in IMDM supplemented with 10% FBS, 5 ng/mL GM-CSF and 100 units/mL Penicillin-Streptomycin and grown in a 37° C. humidified tissue culture incubator. UT-7 cells were washed once with serum free, GM-CSF free IMDM. Cells were then resuspended in IMDM containing 4% FBS and 50 ng/mL SCF and seeded at 2500 cells per well in a volume of 22 μL in a 384-well microplate. A 10-point dose concentration series of test compounds (25.0 μM to 95.4 pM) were then added to the cells in a volume of 3.1 μL to each well (0.25% DMSO final concentration) and placed in a tissue culture incubator (5% CO2, 37° C.) for 72 hours. After 3-days with test compound, CellTiter-Glo reagent was prepared fresh and 25 μL of reagent was added to each well. The plate was mixed by shaking for 10 minutes at RT at 300 rpm on a plate shaker. The plate was read on an EnVision plate reader using the Ultra Sensitive Luminescence protocol for a 384-well plate.

The mark [4] stands for this setting: homogenate rat brain, read-out: Rat Kp, uu Homogenate.
Where [5] appears, read: rat brain slice, read-out: Rat Kp, uu Brain slice.

Chain of KIT D816V (Homo sapiens (Human), UniProt P10721, D816V/V560G) (P10721 26-976 V560G/D816V): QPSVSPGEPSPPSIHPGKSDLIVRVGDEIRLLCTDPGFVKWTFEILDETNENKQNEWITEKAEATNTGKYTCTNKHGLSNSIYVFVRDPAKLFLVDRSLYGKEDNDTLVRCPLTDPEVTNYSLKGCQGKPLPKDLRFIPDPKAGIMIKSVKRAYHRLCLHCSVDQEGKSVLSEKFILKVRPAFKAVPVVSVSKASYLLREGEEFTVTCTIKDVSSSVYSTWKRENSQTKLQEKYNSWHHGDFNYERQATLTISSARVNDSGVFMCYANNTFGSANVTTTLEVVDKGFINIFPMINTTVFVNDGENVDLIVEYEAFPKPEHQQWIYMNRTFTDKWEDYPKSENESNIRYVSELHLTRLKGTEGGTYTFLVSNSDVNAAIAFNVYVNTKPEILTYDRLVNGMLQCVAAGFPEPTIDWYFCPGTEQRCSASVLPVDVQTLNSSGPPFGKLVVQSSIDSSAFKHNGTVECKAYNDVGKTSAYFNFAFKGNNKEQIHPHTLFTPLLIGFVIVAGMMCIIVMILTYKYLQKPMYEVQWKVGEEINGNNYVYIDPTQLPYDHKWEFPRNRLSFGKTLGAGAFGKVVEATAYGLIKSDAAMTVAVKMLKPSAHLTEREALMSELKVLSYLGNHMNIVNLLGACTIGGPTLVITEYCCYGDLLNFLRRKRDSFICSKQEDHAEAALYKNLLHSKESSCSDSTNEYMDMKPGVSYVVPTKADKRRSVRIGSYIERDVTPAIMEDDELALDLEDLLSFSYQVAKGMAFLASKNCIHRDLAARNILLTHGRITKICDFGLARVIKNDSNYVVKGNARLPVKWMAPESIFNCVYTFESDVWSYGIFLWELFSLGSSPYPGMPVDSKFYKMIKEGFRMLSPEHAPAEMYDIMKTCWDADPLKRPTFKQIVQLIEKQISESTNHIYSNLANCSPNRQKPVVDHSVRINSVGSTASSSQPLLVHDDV
Chain of PDGFRα D842V (P16234 24-1089 D842V): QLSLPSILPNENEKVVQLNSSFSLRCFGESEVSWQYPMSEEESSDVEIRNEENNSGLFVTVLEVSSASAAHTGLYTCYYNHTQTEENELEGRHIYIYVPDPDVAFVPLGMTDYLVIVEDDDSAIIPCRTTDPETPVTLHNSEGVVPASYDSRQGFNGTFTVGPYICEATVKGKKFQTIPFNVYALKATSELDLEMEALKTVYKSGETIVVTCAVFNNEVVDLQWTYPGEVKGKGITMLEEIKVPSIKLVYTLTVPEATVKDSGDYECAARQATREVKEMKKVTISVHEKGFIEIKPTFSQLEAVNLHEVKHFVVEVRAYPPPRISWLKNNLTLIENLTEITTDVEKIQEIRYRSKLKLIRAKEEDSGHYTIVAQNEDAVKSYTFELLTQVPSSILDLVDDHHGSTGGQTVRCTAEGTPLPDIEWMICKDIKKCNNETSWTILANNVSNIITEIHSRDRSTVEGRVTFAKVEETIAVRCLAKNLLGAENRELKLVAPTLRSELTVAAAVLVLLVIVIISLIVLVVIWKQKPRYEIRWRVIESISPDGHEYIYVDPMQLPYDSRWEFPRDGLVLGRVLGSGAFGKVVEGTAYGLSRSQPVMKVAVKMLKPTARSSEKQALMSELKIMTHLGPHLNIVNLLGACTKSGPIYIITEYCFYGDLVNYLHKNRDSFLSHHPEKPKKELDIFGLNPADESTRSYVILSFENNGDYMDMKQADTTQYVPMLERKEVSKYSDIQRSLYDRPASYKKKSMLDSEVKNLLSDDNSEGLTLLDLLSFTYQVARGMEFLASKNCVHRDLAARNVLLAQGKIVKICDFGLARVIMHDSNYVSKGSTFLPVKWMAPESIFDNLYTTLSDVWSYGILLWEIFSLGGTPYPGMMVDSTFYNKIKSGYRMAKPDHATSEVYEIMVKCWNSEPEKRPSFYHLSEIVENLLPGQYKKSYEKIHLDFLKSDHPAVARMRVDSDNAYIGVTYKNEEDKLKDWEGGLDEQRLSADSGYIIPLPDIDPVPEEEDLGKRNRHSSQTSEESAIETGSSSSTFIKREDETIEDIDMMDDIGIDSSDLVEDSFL
Chain of wt KIT kinase (P10721 26-976): as the sequence (P10721 26-976 V560G/D816V) above, with G535V, V791D counted along it
Chain of KIT D816V (Homo sapiens (Human), UniProt P10721, D816V) (P10721 26-976 D816V): as the sequence (P10721 26-976 V560G/D816V) above, with G535V counted along it

With `C[C@](N)(c1ccc(F)cc1)c1cnc(N2CCN(c3ncnn4cc(-c5cnn([C@@H]6CCOC6)c5)cc34)CC2)nc1` [Compound 14, (S)-1-(4-Fluorophenyl)-1-(2-(4-(6-(1-((R)-tetrahydrofuran-3-yl)-1H-pyrazol-4-yl)pyrrolo[2,1-f][1,2,4]triazin-4-yl)piperazin-1-yl)pyrimidin-5-yl)ethanamine], the IC50 at KIT D816V [1] is no more than 0.3 nM; at PDGFRα D842V it was no more than 0.3 nM; on KIT D816V [2], less than 4.5 nM; in the series with UT-7 cells, 150 to 200 nM. Further, in series [3] (setting [4]), the Kp uu at 24 h came to 0.22. Further, in series [3], the partition ratio (Kp) at 24 h was less than 0.39. For the same compound, the “Rat Kp” value in series [3] worked out at 0.35. The Kd at wt KIT kinase is less than 10 nM.

Regarding `C[C@](N)(c1ccc(F)cc1)c1cnc(N2CCN(c3ncnn4cc(-c5cnn(CC6COC6)c5)cc34)CC2)nc1` [Compound 8, (S)-1-(4-fluorophenyl)-1-(2-(4-(6-(1-(oxetan-3-ylmethyl)-1H-pyrazol-4-yl)pyrrolo[2,1-f][1,2,4]triazin-4-yl)piperazin-1-yl)pyrimidin-5-yl)ethan-1-amine], the IC50 was no more than 0.3 nM on KIT D816V [1], no more than 0.3 nM on PDGFRα D842V, less than 4.5 nM at KIT D816V [2] and less than 90 nM with UT-7 cells. Also, the results for the Kp uu at 24 h in series [3] (setting [4]) and in series [3] (setting [5]) were no more than 0.2 and no more than 0.1, respectively. Moreover, the partition ratio (Kp) at 24 h in series [3] is 0.43. Moreover, the Kd on wt KIT kinase was less than 10 nM.

As to `C[C@](N)(c1ccc(F)cc1)c1cnc(N2CCN(c3ncnn4cc(-c5cnn([C@H]6CCOC6)c5)cc34)CC2)nc1` [Compound 15, (S)-1-(4-Fluorophenyl)-1-(2-(4-(6-(1-((S)-tetrahydrofuran-3-yl)-1H-pyrazol-4-yl)pyrrolo[2,1-f][1,2,4]triazin-4-yl)piperazin-1-yl)pyrimidin-5-yl)ethanamine], the IC50 at KIT D816V [1] was no more than 0.3 nM; at PDGFRα D842V it was no more than 0.3 nM; at KIT D816V [2], less than 4.5 nM; with UT-7 cells it was 150 to 200 nM. Moreover, the Kp uu at 24 h in series [3] (setting [4]) was 0.62; in series [3] (setting [5]), no more than 0.1. Further, in series [3], the Kp at 24 h is 0.9. The same compound returned a dissociation constant (Kd) on wt KIT kinase of less than 10 nM.

Turning to `C[C@](N)(c1ccc(F)cc1)c1cnc(N2CCN(c3ncnn4cc(-c5cnn([C@@H]6COC[C@H]6O)c5)cc34)CC2)nc1` (single isomer, unassigned) [Compound 19], the IC50 at KIT D816V [1] was no more than 0.3 nM; on PDGFRα D842V, no more than 0.3 nM; on KIT D816V [2], less than 4.5 nM; in the series with UT-7 cells, 90.1 to 150 nM. Moreover, the Kp uu at 24 h in series [3] (setting [5]) was 0.04. In addition, on wt KIT kinase, the Kd is less than 10 nM.

In the case of `C[C@](N)(c1ccc(F)cc1)c1cnc(N2CCN(c3ncnn4cc(-c5cnn([C@H]6C[C@@H](O)C6)c5)cc34)CC2)nc1` [Compound 10, cis-3-(4-(4-(4-(5-((S)-1-Amino-1-(4-fluorophenyl)ethyl)pyrimidin-2-yl)piperazin-1-yl)pyrrolo[2,1-f][1,2,4]triazin-6-yl)-1H-pyrazol-1-yl)cyclobutanol], the IC50 was 0.31 to 1 nM on KIT D816V [1], no more than 0.3 nM on PDGFRα D842V, less than 4.5 nM on KIT D816V [2] and less than 90 nM in the series on UT-7 cells. Also, the “Rat Kp” value in series [3] is 0.23. This compound registered a dissociation constant (Kd) at wt KIT kinase of less than 10 nM.

For the compound `C[C@](N)(c1ccc(F)cc1)c1cnc(N2CCN(c3ncnn4cc(-c5cnn([C@H]6CC[C@@H]6O)c5)cc34)CC2)nc1` (single isomer, unassigned) [Compound 21], the IC50 on KIT D816V [1] was 0.31 to 1 nM; on PDGFRα D842V, no more than 0.3 nM; on KIT D816V [2], less than 4.5 nM; in the series on UT-7 cells, 90.1 to 150 nM. Besides, the Kp uu at 24 h in series [3] (setting [4]) is 0.36; in series [3] (setting [5]), no more than 0.1. Moreover, at wt KIT kinase, the dissociation constant Kd was less than 10 nM.

For `C[C@](N)(c1ccc(F)cc1)c1cnc(N2CCN(c3ncnn4cc(-c5cnn(C6CCOCC6)c5)cc34)CC2)nc1` [Compound 16, (S)-1-(4-Fluorophenyl)-1-(2-(4-(6-(1-(tetrahydro-2H-pyran-4-yl)-1H-pyrazol-4-yl)pyrrolo[2,1-f][1,2,4]triazin-4-yl)piperazin-1-yl)pyrimidin-5-yl)ethan-1-amine], the IC50 on KIT D816V [1] is no more than 0.3 nM; on PDGFRα D842V, no more than 0.3 nM; at KIT D816V [2], 4.6 to 10 nM; in the series with UT-7 cells, 150 to 200 nM. In addition, the Kp uu at 24 h in series [3] (setting [4]) was no more than 0.2; in series [3] (setting [5]), no more than 0.1. Further, in series [3], the Kp at 24 h came to 0.93. For the same compound, on wt KIT kinase, the Kd was less than 10 nM.
